According to patent US7517517B2 (Janssen Pharmaceutica N.V., priority 2002, dated 2009):
Marks after values point to notes of the source that are not given here.

Tests used:
[1] = target: T1, rat mGlu3 receptor (Rattus norvegicus, UniProt P31422); test: [3H]Compound A binding to membranes from CHO-dhfr− cells expressing the rat mGlu3 receptor; conditions: 20 nM [3H]Compound A, 40 μg membranes
T1 construct: host or cells: CHO-dhfr- cells
Description: (§1) Confluent cells were washed in ice-cold phosphate-buffered saline and stored at −20° C. until membrane preparation. After thawing, cells were suspended in 50 mM Tris-HCl, pH 7.4 and collected through centrifugation for 10 min at 23,500 g at 4° C. The cells were lysed in 10 mM hypotonic Tris-HCl, pH 7.4. After recentrifugation for 20 min at 30,000 g at 4° C., the pellet was homogenized with an Ultra Turrax homogenizer in 50 mM Tris-HCl, pH 7.4. Protein concentrations were measured by the Bio-Rad protein assay using bovine serum albumin as standard.
(§2) After thawing, the membranes were homogenized using an Ultra Turrax homogenizer and suspended in ice-cold binding buffer containing 50 mM Tris-HCl (pH 7.4), 1.2 mM MgCl2, 2 mM CaCl2. For [^3H]Compound A binding, 20 to 160 μg membrane protein and a final concentration of 20 nM [^3H]Compound A was used. As indicated in the results section, different blancs were used to define non-specific binding. Incubation time and temperature as well as filtration were as described for rat mGlu1a receptor CHO-dhfr^− membranes. Expression of rat mGlu2, -3, -5 and mGlu6 receptors was confirmed by specific binding of [^3H]LY341495 (mGlu2, -3 and -6) or [^3H]MPEP (mGlu5). For [^3H]LY341495 binding, 1 nM (mGlu2 and mGlu3) or 10 nM (mGlu6) [^3H]LY341495 was used. […] Assay mixtures were incubated for 30 min (mGlu2 and mGlu3) or 60 min (mGlu6) at 4° C. […]

[2] = target: T2, rat mGlu4 receptor (Rattus norvegicus, UniProt P31423); test: [3H]Compound A binding to membranes from CHO-dhfr− cells expressing the rat mGlu4 receptor; conditions: 20 nM [3H]Compound A, 40 μg membranes
T2 construct: host or cells: CHO-dhfr- cells
T2 sequence (P31423 33-912): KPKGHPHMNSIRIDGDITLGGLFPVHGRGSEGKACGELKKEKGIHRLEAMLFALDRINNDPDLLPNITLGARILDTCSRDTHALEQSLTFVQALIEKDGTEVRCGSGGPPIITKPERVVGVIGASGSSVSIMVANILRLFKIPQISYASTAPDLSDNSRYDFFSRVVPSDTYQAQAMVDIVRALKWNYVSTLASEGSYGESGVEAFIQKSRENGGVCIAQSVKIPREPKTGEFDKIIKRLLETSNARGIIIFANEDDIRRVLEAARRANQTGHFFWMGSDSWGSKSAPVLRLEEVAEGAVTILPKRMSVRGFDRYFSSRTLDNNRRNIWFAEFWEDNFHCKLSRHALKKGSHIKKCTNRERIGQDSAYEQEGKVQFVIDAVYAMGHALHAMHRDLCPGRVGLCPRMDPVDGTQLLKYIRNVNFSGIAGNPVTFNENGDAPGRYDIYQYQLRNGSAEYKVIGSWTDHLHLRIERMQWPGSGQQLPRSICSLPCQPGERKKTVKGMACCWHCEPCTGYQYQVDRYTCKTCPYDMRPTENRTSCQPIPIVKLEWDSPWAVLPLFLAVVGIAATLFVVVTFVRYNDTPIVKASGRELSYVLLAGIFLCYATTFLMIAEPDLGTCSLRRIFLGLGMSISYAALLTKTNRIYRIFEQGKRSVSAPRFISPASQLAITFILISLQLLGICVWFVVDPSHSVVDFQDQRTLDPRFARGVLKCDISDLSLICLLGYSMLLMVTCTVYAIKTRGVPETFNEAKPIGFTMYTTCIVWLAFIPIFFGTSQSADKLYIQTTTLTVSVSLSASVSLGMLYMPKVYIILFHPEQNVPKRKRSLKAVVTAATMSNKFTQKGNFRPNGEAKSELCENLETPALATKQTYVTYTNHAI
Description: as §1, §2

[3] = target: mGlu1 receptor (Rattus norvegicus, UniProt P23385); test: [3H]Compound A binding to rat brain membranes (cortex, hippocampus, striatum, cerebellum)
Description: Tissue preparation. Male Wistar rats (˜200 g) were sacrificed by decapitation. The brains were rapidly removed and cortex, hippocampus, striatum and cerebellum were immediately dissected. The fresh tissue was homogenized with an Ultra Turrax in 20 volumes of 50 mM Tris-HCl, pH 7.4 and tissue was centrifuged at 23,500 g for 10 min. After homogenisation using a DUAL homogeniser, membranes were washed twice by centrifugation at 23,500 g for 10 min. The final pellet was suspended in 10 volumes of 50 mM Tris-HCl, pH 7.4 and frozen at −80° C.
In vitro binding assay. After thawing, membranes from rat cortex, cerebellum, striatum and hippocampus were rehomogenized using a DUAL and suspended in ice-cold binding buffer containing 50 mM Tris-HCl, 1.2 mM MgCl2, 2 mM CaCl2, pH 7.4. The binding assay was carried out in a total volume of 0.5 ml containing 2.5 nM [^3H]Compound A and a membrane aliquot corresponding to 40 μg for cerebellar membranes, 60 μg for hippocampal membranes, 80 μg for striatal membranes or 150 μg for cortical membranes. […] After incubation for 30 min at 4° C., the labelled membranes were washed and harvested by rapid vacuum filtration over Whatman GF/C glass-fibre filters using a 40-well filtration manifold and radioactivity collected on the filters was counted as above.
Data analysis was performed using the GraphPad Prism program (GraphPad Prism Software, Inc., San Diego, Calif.). Saturation binding experiments were analysed using a non-linear regression analysis. Inhibition curves were fitted using non-linear regression analysis fitting the one-site competition equation: Y=Bottom+((Top−Bottom)/1+10^X-LogIC50). Ki values were calculated using the Cheng-Prusoff equation: Ki=IC50/[1+([C]/KD)] where C is the concentration of radioligand and KD is the dissociation constant of the radioligand (Cheng and Prusoff, Biochem. Pharmacol. 22, 3099-3108, 1973). The observed on (kob) and off (koff) rate were calculated from association-dissociation curves using the one-phase-exponential association and decay equations in the Prism program, respectively. kon was calculated by subtracting koff from kob and dividing by the radioligand concentration. The two-tailed Student's t-test was used for statistical evaluation of the binding data: * p<0.05, ** p<0.01 and *** p<0.001. The Dunnett's t-test following a 2-way analysis of variance (with as factors compound concentration and experiment) were used to analyse the data from the IP experiments.

[4] = target: T3, rat mGlu1a receptor (Rattus norvegicus, UniProt P23385); test: [3H]Compound A binding to rat mGlu1a receptor CHO-dhfr− membranes (saturation, kinetics, inhibition); conditions: for observed association rate constant (kob): 2.5 nM radioligand
T3 construct: host or cells: CHO-dhfr- cells
T3 sequence (P23385 19-1199): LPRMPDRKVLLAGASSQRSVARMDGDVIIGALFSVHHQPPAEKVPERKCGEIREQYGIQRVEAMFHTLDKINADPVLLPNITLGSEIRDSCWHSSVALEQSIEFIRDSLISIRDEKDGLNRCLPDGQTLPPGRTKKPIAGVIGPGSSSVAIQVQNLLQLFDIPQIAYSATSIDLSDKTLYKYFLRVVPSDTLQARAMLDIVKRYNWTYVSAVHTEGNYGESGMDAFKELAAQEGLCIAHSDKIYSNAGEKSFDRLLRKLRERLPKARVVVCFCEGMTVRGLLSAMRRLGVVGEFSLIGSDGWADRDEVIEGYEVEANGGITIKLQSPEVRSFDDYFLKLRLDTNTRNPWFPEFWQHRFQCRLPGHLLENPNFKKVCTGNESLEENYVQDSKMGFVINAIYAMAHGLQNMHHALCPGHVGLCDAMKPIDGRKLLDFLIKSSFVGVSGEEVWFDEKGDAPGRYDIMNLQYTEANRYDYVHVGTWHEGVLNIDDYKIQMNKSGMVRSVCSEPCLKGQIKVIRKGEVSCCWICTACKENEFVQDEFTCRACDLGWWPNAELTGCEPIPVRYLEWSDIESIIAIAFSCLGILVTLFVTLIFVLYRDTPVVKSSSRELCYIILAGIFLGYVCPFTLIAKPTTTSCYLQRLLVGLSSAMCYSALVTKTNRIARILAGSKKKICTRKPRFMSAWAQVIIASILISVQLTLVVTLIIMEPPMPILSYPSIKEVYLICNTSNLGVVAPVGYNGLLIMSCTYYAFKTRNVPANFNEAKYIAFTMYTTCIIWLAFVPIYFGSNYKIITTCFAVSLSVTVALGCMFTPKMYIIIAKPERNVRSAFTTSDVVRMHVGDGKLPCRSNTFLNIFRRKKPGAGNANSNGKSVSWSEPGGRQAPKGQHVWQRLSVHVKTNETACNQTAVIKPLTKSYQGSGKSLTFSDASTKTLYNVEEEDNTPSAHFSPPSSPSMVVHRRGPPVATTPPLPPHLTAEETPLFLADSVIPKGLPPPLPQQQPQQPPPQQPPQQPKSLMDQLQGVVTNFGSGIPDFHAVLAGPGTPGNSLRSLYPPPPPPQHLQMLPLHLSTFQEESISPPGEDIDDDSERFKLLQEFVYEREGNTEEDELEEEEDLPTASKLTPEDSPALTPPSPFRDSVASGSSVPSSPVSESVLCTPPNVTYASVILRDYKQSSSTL

[5] = target: T4, rat mGlu2 receptor (Rattus norvegicus, UniProt P31421); test: [3H]Compound A binding to membranes from CHO-dhfr− cells expressing the rat mGlu2 receptor; conditions: 20 nM [3H]Compound A, 40 μg membranes
T4 construct: host or cells: CHO-dhfr- cells
T4 sequence (P31421 19-872): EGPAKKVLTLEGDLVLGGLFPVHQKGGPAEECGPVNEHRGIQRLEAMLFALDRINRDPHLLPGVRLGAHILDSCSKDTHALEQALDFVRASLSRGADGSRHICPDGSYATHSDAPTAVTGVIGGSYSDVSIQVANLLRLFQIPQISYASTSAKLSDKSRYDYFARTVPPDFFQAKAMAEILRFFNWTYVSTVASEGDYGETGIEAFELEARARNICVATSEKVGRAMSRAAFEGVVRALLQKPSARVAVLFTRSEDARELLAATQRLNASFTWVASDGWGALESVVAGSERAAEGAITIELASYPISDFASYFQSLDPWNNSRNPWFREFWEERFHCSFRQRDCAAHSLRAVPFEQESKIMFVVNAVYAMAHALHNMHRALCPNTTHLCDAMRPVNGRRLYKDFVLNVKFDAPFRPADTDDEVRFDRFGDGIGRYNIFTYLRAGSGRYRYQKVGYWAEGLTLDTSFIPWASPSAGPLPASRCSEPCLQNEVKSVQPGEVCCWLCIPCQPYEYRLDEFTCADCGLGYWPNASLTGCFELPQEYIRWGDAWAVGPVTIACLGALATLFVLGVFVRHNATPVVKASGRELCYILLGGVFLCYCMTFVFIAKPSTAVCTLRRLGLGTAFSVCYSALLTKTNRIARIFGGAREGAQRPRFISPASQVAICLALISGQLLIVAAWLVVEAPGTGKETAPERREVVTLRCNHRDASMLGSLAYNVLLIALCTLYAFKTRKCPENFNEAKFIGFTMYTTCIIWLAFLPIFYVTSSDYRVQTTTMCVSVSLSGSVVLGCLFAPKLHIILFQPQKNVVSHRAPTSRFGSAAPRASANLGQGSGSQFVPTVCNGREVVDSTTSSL
Description: as §1, §2

[6] = target: T5, rat mGlu5 receptor (Rattus norvegicus, UniProt P31424); test: [3H]Compound A binding to membranes from CHO-dhfr− cells expressing the rat mGlu5 receptor; conditions: 20 nM [3H]Compound A, 40 μg membranes; Compound 135 as blanc
T5 construct: host or cells: CHO-dhfr- cells
T5 sequence (P31424 21-1203): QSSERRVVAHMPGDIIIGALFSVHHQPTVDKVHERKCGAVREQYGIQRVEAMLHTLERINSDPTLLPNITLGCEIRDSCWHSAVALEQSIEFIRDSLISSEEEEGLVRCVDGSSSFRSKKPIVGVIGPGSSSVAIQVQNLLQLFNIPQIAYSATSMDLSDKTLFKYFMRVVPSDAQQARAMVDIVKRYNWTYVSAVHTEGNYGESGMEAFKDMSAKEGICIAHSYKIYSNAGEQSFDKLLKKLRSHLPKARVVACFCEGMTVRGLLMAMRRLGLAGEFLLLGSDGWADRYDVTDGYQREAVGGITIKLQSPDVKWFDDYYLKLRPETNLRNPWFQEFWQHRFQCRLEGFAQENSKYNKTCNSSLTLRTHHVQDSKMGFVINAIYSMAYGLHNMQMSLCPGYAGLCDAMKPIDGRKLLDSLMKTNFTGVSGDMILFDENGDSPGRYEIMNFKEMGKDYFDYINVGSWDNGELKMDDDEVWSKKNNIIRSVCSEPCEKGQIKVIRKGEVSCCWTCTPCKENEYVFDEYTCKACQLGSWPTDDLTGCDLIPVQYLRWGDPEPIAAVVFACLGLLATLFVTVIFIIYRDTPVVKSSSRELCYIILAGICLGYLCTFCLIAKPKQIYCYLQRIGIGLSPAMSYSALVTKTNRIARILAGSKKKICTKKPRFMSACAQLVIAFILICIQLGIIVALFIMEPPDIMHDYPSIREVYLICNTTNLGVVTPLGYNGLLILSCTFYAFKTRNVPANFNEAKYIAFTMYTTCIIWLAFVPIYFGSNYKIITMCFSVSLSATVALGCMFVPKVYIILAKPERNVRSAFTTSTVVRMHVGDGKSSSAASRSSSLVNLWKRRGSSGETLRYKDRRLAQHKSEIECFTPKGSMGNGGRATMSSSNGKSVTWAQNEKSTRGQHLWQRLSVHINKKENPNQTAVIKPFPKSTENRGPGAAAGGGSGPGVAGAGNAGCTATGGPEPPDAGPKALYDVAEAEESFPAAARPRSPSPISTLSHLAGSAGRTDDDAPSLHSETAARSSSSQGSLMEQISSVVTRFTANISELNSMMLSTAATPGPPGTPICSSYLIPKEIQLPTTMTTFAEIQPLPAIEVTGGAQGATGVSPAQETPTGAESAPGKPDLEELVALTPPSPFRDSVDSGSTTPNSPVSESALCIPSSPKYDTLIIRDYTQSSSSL
Description: as §1, §2

[7] = target: T6, rat mGlu6 receptor (Rattus norvegicus, UniProt P35349); test: [3H]Compound A binding to membranes from CHO-dhfr− cells expressing the rat mGlu6 receptor; conditions: 20 nM [3H]Compound A, 40 μg membranes; Compound 135 as blanc
T6 construct: host or cells: CHO-dhfr- cells
Description: as §1, §2

[8] = membranes from rat cerebellum, mean ± SD, 3 experiments
[9] = membranes from rat cortex, mean ± SD, 3 experiments
[10] = membranes from rat hippocampus, mean ± SD, 3 experiments
[11] = membranes from rat striatum, mean ± SD, 3 experiments
[12] = [3H]Compound A saturation binding in presence of BAY 36-7620 (100 nM), mean ± SD, 3 experiments
[13] = [3H]Compound A saturation binding in presence of CPCCOEt (30 μM), mean ± SD, 3 experiments
[14] = [3H]Compound A saturation binding in presence of NPS 2390 (10 nM), mean ± SD, 3 experiments
[15] = [3H]Compound A saturation binding, control (absence of antagonist), mean ± SD, 3 experiments

T1 sequence (P31422 23-879): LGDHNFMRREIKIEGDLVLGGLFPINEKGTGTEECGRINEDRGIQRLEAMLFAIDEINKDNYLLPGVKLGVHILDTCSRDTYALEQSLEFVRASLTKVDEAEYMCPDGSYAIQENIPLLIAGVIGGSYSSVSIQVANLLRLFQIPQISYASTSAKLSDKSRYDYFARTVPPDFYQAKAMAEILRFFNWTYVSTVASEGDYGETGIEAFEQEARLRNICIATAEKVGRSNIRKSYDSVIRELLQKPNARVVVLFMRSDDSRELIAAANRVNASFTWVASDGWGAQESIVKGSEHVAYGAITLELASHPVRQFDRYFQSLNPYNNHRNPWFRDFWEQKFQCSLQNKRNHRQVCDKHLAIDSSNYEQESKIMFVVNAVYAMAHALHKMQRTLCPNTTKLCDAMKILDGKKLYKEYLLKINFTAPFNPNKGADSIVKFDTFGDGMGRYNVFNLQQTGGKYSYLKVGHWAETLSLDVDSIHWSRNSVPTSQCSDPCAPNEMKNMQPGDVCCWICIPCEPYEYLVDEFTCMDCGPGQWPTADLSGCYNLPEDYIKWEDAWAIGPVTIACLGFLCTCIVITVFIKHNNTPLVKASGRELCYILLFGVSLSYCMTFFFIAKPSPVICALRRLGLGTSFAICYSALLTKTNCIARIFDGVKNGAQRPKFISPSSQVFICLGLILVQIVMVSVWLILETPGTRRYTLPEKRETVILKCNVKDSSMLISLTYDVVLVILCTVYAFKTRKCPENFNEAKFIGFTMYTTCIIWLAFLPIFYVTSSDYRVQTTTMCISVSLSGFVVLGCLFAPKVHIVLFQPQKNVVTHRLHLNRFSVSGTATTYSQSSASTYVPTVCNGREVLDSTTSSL

[3H]c1ccc(CC(=O)c2ccc3nc4c(cc3c2)CCCO4)cc1 [[^3H]Compound A]
SB (fmoles/mg protein), mGlu3 ([1]; Compound 135 as blanc): 0 fmoles/mg protein | SB (fmoles/mg protein), mGlu3 ([1]; various blancs: 1 mM glutamate): 0^a fmoles/mg protein | SB (fmoles/mg protein), mGlu4 ([2]; Compound 135 as blanc): 82 fmoles/mg protein | SB (fmoles/mg protein), mGlu4 ([2]; various blancs: 0.1 mM L-SOP): 57^b fmoles/mg protein | Kd ([3]; all structures (cortex, hippocampus, striatum, cerebellum)): ~1000 pM | non-specific binding compared to total binding ([3]; cerebellum): 10% | non-specific binding compared to total binding ([3]; cortex): 25% | number of sites labelled as % of the number found in the cerebellum ([3]; cortex): 11% | non-specific binding compared to total binding ([3]; hippocampus): 30% | number of sites labelled as % of the number found in the cerebellum ([3]; hippocampus): about 16% | Bmax [3, 8]: 4302 ± 2042 fmoles/mg protein | Kd [3, 8]: 990 ± 360 pM | Bmax [3, 9]: 471 ± 68 fmoles/mg protein | Kd [3, 9]: 1040 ± 400 pM | Bmax [3, 10]: 688 ± 125 fmoles/mg protein | Kd [3, 10]: 720 ± 220 pM | Bmax [3, 11]: 741 ± 48 fmoles/mg protein | Kd [3, 11]: 840 ± 230 pM | non-specific binding compared to total binding ([3]; striatum): 25% | number of sites labelled as % of the number found in the cerebellum ([3]; striatum): about 16% | SB (fmoles/mg protein), mGlu1 ([4]; 10 nM [3H]Compound A, 20 μg membranes, Compound 135 as blanc, mean ± SD of 3 experiments): 6057 fmoles/mg protein | specific binding as % of the total binding ([4]; 20 μg protein per assay, non-specific binding with 1 μM compound 135): ~92% | koff ([4]; 4° C.): 0.00208 s⁻¹ | specific binding after 2 min incubation as % of the quantity bound at equilibrium ([4]; 4° C.): about 70% | time to complete displacement after addition of excess compound 135 ([4]; 4° C.): approximately 45 min | observed association rate constant (kob) ([4]; 4° C.): 0.6285 min⁻¹ | kon ([4]; 4° C., read-out: kon (kob−koff/radioligand concentration) (converted)): 1.68e+06 M⁻¹ s⁻¹ | time to dissociation after addition of 1 μM compound 135 ([4]; 25° C.): ≤ 2 min | observed association rate constant (kob) ([4]; 25° C.): 2.571 min⁻¹ | observed association rate constant (kob) ([4]; 37° C.): 1.523 min⁻¹ | Bmax [4, 12]: 5872 ± 1018 fmoles/mg protein | Kd [4, 12]: 5210 ± 1200 pM | Bmax [4, 13]: 7009 ± 1231 fmoles/mg protein | Kd [4, 13]: 3170 ± 900 pM | Bmax [4, 14]: 6887 ± 2804 fmoles/mg protein | Kd [4, 14]: 2900 ± 200 pM | Bmax [4, 15]: 7284 ± 970 fmoles/mg protein | Kd [4, 15]: 730 ± 90 pM | incubation time to maximal binding ([4]; each incubation temperature (4, 25, 37° C.)): ≤ 5 min | decrease of specific binding at pH 6 ([4]; pH 6): 22% | more binding sites labelled than [3H]quisqualate ([4]; rat mGlu1a receptor CHO-dhfr− membranes): ~40% | Kd ([4]; saturation, 30 min incubation, n=3): 900 ± 140 pM | SB (fmoles/mg protein), mGlu2 ([5]; Compound 135 as blanc): 0 fmoles/mg protein | SB (fmoles/mg protein), mGlu2 ([5]; various blancs: 1 mM glutamate): 34^a fmoles/mg protein | SB (fmoles/mg protein), mGlu5 [6]: 38 fmoles/mg protein | melting point: 195 °C | SB (fmoles/mg protein), mGlu6 [7]: 0 fmoles/mg protein
